Test results published in ChEMBL document CHEMBL3045575, “Synthesis of tetracyclic aza-/oxa-naphthalen-8-ones and their antimicrobial activity” (2013).

Key:
Assay type in all cases: functional
Fusarium graminearum = experiment: Antifungal activity against Fusarium graminearum at 100 ug after 7 days by poison-food method; conditions: 168 h, read-out: IZ
Micrococcus luteus = experiment: Antibacterial activity against Micrococcus luteus at 100 ppm after 24 hr by cup-plate method; conditions: read-out: IZ
Escherichia coli = experiment: Antibacterial activity against Escherichia coli at 100 ppm after 24 hr by cup-plate method; conditions: read-out: IZ
Staphylococcus aureus = experiment: Antibacterial activity against Staphylococcus aureus at 100 ppm after 24 hr by cup-plate method; conditions: read-out: IZ

| SMILES | zone of inhibition at 100 µg/disc (Fusarium graminearum) | zone of inhibition at 100 ppm (Micrococcus luteus) | zone of inhibition at 100 ppm (Escherichia coli) | zone of inhibition at 100 ppm (Staphylococcus aureus) |
| --- | --- | --- | --- | --- |
| O=C1CC2c3ccc4ccccc4c3OC2N1c1cccc([N+](=O)[O-])c1 (stereo not drawn) | 25 mm | 9 mm | 9 mm | 21 mm |
| Cc1ccc(N2C(=O)CC3c4ccc5ccccc5c4OC32)cc1 (stereo not drawn) | 50 mm | 18 mm | 10 mm | 11 mm |
| CC1(C)S[C@@H]2[C@H](NC(=O)[C@H](N)c3ccccc3)C(=O)N2[C@H]1C(=O)O [AMPICILLIN] |  | 5 mm | 4 mm | 5 mm |
| O=C1CC2c3ccc4ccccc4c3OC2O1 (stereo not drawn) | 45 mm | 10 mm | 11 mm | 10 mm |
| O=C1CC2c3ccc4ccccc4c3OC2N1c1ccccc1 (stereo not drawn) | 45 mm | 11 mm | 11 mm | 10 mm |
| O=C1CC2c3ccc4ccccc4c3OC2N1c1ccc([N+](=O)[O-])cc1 (stereo not drawn) | 25 mm | 10 mm | 8 mm | 8 mm |
